Measured values taken from ChEMBL document CHEMBL1123119, “Analogues of platelet activating factor (PAF). 2. Some modifications of the glycerine backbone” (J Med Chem, 1985).
pEC50: −log10 of the molar value.

Experiments:
Type in all cases: functional
Rattus norvegicus = species on record: Rattus norvegicus; experiment: Hypotensive activity of compound was determined in hypertensive rats, as dose required to decrease the mean arterial blood pressure 50 mmHg was determined
Oryctolagus cuniculus [1] = species on record: Oryctolagus cuniculus; experiment: Effective concentration required to produce 50% of the maximum platelet aggregation using rabbit platelet-rich plasma was determined.
Oryctolagus cuniculus [2] = species on record: Oryctolagus cuniculus; experiment: Maximum platelet aggregation units at 1.3*10e-5 molar concentration was determined.
[3] = Ratio of MABP to that of platelet EC50 of the compound.
Oryctolagus cuniculus [4] = species on record: Oryctolagus cuniculus; experiment: Maximum platelet aggregation units at 5*10e-4 molar concentration was determined.
Oryctolagus cuniculus [5] = species on record: Oryctolagus cuniculus; experiment: Maximum platelet aggregation units at 1.9*10e-4 molar concentration was determined.
Oryctolagus cuniculus [6] = species on record: Oryctolagus cuniculus; experiment: Maximum platelet aggregation units at 5*10e-5 molar concentration was determined.
Oryctolagus cuniculus [7] = species on record: Oryctolagus cuniculus; experiment: Maximum platelet aggregation units at 5*10e-6 molar concentration was determined.

| Compound | pEC50 (Oryctolagus cuniculus [1]) | Dose (Rattus norvegicus) [mg/kg] | Max aggregation response (Oryctolagus cuniculus [2]) | Ratio [3] | Max aggregation response (Oryctolagus cuniculus [4]) | Max aggregation response (Oryctolagus cuniculus [5]) | Max aggregation response (Oryctolagus cuniculus [6]) | Max aggregation response (Oryctolagus cuniculus [7]) |
| --- | --- | --- | --- | --- | --- | --- | --- | --- |
| CCCCCCCCCCCCCCCCOCC(COP(=O)([O-])OCC[N+](C)(C)C)OC(C)=O (centres undefined) [PLATELET ACTIVATING FACTOR] | 7.71 | 0.00125 | 75 | 0.65 | – | – | – | – |
| CCCCCCCCCCCCCCCCOC(C)(C)C(COP(=O)([O-])OCC[N+](C)(C)C)OC(C)=O (centres undefined) | 4.96 | 0.8757 | – | 0.8 | – | – | 64 | – |
| CCCCCCCCCCCCCCCCOCC(OC(C)=O)C(C)OP(=O)([O-])OCC[N+](C)(C)C (centres undefined) | 5.49 | 0.0634 | – | 0.2 | – | 70 | – | – |

Further compounds by rising pEC50 (Oryctolagus cuniculus [1]), results first:

| pEC50 (Oryctolagus cuniculus [1]) | Compound | Dose (Rattus norvegicus) [mg/kg] | Max aggregation response (Oryctolagus cuniculus [2]) | Ratio [3] | Max aggregation response (Oryctolagus cuniculus [4]) | Max aggregation response (Oryctolagus cuniculus [5]) | Max aggregation response (Oryctolagus cuniculus [6]) | Max aggregation response (Oryctolagus cuniculus [7]) |
| --- | --- | --- | --- | --- | --- | --- | --- | --- |
| 5.82 | CCCCCCCCCCCCCCCCOCCC(COP(=O)([O-])OCC[N+](C)(C)C)OC(C)=O (centres undefined) | 0.0243 | – | 0.16 | – | 50 | – | – |
| 5.85 | CCCCCCCCCCCCCCCCOCC(CCOP(=O)([O-])OCC[N+](C)(C)C)OC(C)=O (centres undefined) | 0.0475 | – | 0.34 | – | – | – | 65 |
| 6.29 | CCCCCCCCCCCCCCCCOC(C)C(COP(=O)([O-])OCC[N+](C)(C)C)OC(C)=O (centres undefined) | 0.00712 | – | 0.14 | 65 | – | – | – |
